A word on the IC50: it is the concentration that gives 50% inhibition.

This passage reports IC50 results from patent publication US9273043B2, “TRPV1 antagonists including dihydroxy substituent and uses thereof” (Purdue Pharma L.P., priority 2011, dated 2016).

Holding throughout (format): cell-based
The target of assay [1] is T1, human TRPV1 (Homo sapiens (Human), UniProt Q8NER1). Nature of the assay: Capsaicin-based assay, Protocol 2, TRPV1/CHO cells (hCAP-CHO), Fluo-4 FLIPR. Conditions: 100 nM capsaicin, mean ± SEM. In short, it runs like this:
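CHO cells stably transfected with human TRPV1 cDNA (G418-selected) were loaded with 3 μM Fluo-4 for 1 h, washed, then read on FLIPR with 15 s baseline before additions. Compound tested at final 100 μM to 1.5625 μM against capsaicin stimulation; calcium fluorescence time course curve-fitted.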

In assay [2] the target is T1, human TRPV1. Nature of the assay: Human TRPV1 heat-based assay, hTRPV1/CHO cells (hHeat-CHO). The following applies: temperature ramp 25 to 45 °C, mean ± SEM. Here is the method: Human TRPV1 Heat-based Assay:
CHO cells stably expressing human TRPV1 (hTRPV1) were used. Functional assessment of heat-induced activation of hTRPV1 was carried out in a cell-based Ca^2+ flux assay using ABI7500 Fast Real-Time PCR System as described in Reubish et al., “Functional assessment of temperature-gated ion-channel activity using a real-time PCR machine,” www.BioTechniques.com 47(3):iii-ix (2009), which is hereby incorporated by reference. Briefly, hTRPV1/CHO cells were cultured in growth media in a tissue culture dish at 37° C. in a CO2 incubator. On the day of the assay, culture media were removed and the cells were then detached using 0.05% trypsin at 37° C. with 5% CO2, for 90 s. The detached cells were centrifuged (1000 rpm, 4 min) to remove trypsin-containing supernatant and resuspended in assay buffer (115 mM NaCl, 5.4 mM KCl, 0.8 mM MgCl2.6H2O, 1.8 mM CaCl2.2H2O, 13.8 mM D-glucose, and 20 mM HEPES). Then, the cells were loaded with 5 μM Fluo-4, a Ca^2+ reporter dye, in the presence of 2.5 mM probenecid at 37° C. with 5% CO2, for 45 min. Thereafter, the cells were washed twice with measuring buffer (assay buffer supplemented with 0.1% BSA and 3.2 mM CaCl2) then transferred to a Fast 96-well Reaction Plate (0.1 mL) (Part no. 4346907, MICROAMP, Applied Biosystems, Foster City, Calif.). The cell density was 100,000 cells/24 μL/well. A solution of the compound under test (6 μL/well) was added into each well of the 96-well plate. Thus, the reaction volume per well was 30 μL.
The plates were then placed inside an ABI7500 Fast Real-Time PCR instrument (Applied Biosystems) to read fluorescence at different temperatures using 7500 software, version 2.0.2 (Applied Biosystems). The initial temperature was set at 25° C. for 1 min. followed by a temperature ramp to 45° C. in 100 s to deliver heat to cells. [Ca^2+], response of hTRPV1/CHO cells to heat was determined as: [fluorescence read at 45° C.−fluorescence read at 25° C.].
Compound concentration response curves and IC50 values were analyzed using GraphPad Prism 4 software (GraphPad Software, La Jolla, Calif.).
The IC50 data provided in Table 6 are shown as mean±standard error of the mean; the number of trials conducted for each assay is shown in parentheses except for only a single trial where no number of trials is shown in parentheses.

Assay [3] addresses T1, human TRPV1. The assay is described as follows: pH-based assay, Protocol 2, TRPV1/CHO cells (hpH-CHO), Fura-2 Ca2+ influx. The following applies: pH 5.0-5.1 (H2SO4), mean ± SEM.

T1 sequence (Q8NER1 whole entry, looked up): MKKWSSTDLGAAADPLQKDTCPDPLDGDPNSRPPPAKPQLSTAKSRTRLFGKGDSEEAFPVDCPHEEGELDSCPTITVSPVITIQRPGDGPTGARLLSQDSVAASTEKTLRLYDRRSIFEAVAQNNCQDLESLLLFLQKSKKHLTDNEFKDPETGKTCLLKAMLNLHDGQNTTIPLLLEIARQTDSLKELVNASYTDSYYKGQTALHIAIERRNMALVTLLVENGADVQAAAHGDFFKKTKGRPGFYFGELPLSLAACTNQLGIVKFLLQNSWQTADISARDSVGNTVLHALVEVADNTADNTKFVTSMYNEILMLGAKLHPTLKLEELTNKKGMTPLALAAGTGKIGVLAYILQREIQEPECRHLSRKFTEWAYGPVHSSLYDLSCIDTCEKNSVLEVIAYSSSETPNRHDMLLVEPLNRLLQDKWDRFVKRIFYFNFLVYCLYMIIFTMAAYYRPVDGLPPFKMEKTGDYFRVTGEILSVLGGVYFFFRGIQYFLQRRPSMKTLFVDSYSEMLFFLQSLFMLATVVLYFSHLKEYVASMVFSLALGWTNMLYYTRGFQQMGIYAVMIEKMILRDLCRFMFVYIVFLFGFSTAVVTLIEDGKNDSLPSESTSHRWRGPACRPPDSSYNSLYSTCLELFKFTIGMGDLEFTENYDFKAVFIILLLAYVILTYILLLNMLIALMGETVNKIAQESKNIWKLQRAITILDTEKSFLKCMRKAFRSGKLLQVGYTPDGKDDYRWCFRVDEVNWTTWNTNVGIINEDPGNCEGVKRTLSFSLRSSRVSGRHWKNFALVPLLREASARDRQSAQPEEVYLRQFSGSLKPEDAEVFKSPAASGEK

For the compound `C[C@H](O)[C@@H](O)c1cnc(N2CCN(C(=O)Nc3nc4ccc(Cl)cc4s3)CC2)c(F)c1` [C123(r), N-(6-chlorobenzo[d]thiazol-2-yl)-4-(5-((1S,2S)-1,2-dihydroxypropyl)-3-fluoropyridin-2-yl)piperazine-1-carboxamide], the IC50 against human TRPV1 [1] stood at 26.9 ± 3.6 nM; against human TRPV1 [2], 96 ± 14 nM; on human TRPV1 [3], 20.6 ± 2.6 nM.
